Measured values from PubChem BioAssay (NCI).
Values joined by “and” are separate entries in the source; they are usually repeats but may differ in a detail not shown here. Equal values may be shown once.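 The compound was tested at five concentrations on cells cultured in 96-well plates, with a 48-hour exposure period. GI50 = concentration required for 50% inhibition of growth. TGI marks complete inhibition of growth.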

Each molecule was assayed on SF-295 CNS (assay: NCI anticancer screen, dose series, 48 h).
For `COc1cc(/C=C/C(=O)c2cccc(-n3cc(-c4ccc(Cl)cc4)[nH]c3=O)c2)ccc1O`, the GI50 was 8.08 µM and the TGI was 31.8 µM. `Cc1ccc2c(C3C(C#N)=C(N)Oc4cc5ccccc5cc43)cc(=O)oc2c1` (configuration not stated) was tested, and the GI50 was 0.533 µM and the TGI was > 100 µM. `C[N+](C)(C)CC1CCC/C1=N\OC(=O)c1ccccc1` (configuration not stated) was tested, and the TGI was > 100 µM. For `O=C(Nc1cc(C(F)(F)F)ccc1Cl)c1cccc(NC2=C(Cl)C(=O)N(Cc3ccccc3)C2=O)c1`, the GI50 was 29.1 µM and the TGI was > 100 µM. `CC1(Br)Cc2ccccc2C1=O` (configuration not stated) showed a TGI of 36.2 µM. `COc1ccc2c(c1)c[n+](C)c1c3cc(OC)c(OC)cc3ccc21` showed a GI50 of 5.06 µM and a TGI of 17.8 µM. Work on `CN(C)C(=S)Sc1ccc([N+](=O)[O-])cc1[N+](=O)[O-]` yielded a GI50 of 14.5 µM and a TGI of 29 µM. `O=C1c2cc3c(cc2-c2c1c1cc(Cl)c(Cl)cc1c(=O)n2C[C@H](O)CO)OCO3` was tested, and the GI50 was < 0.01 µM. With `CC(C)(C)[Si](C)(C)OC1C(=O)C[C@H]2CCCC[C@@H]12` (some centres not stated) the TGI was > 100 µM. In the case of `CC1(C)N=C(N)N=C(N)N1c1ccc(CCCCc2ccc(Cl)c(S(=O)(=O)F)c2)c(Cl)c1`, the GI50 is reported as 0.995 µM and the TGI is reported as 10.6 µM. In the case of `CCc1c(Cl)c(C)cc(O)c1Cl`, the TGI is reported as > 100 µM. For `BrCc1cccc(C[P+](c2ccccc2)(c2ccccc2)c2ccccc2)c1`, the GI50 was 35.5 µM and the TGI was > 100 µM. `C=COC(=O)N[C@H]1CCc2cc(OC)c(OC)c(OC)c2-c2ccc(SC)c(=O)cc21` was tested, and the TGI was 0.0769 µM. With `Cc1ccc(NC(=O)CCc2nnc(N)o2)cc1` the TGI was > 100 µM. With `CN(C)c1ncnc2c1ncn2CCn1cnc2c(N(C)C)ncnc21` the TGI was > 100 µM. `CSc1nc(NC2OC(COC(C)=O)C(OC(C)=O)C(OC(C)=O)C2OC(C)=O)c(N=CC=Nc2c(NC3OC(COC(C)=O)C(OC(C)=O)C(OC(C)=O)C3OC(C)=O)nc(SC)n(C)c2=O)c(=O)n1C` (configuration not stated) was tested, and the GI50 was > 50 µM and the TGI was > 50 µM and 98.8 µM. `O=S(=O)(Nc1ccc(Cl)cc1Cl)c1ccc(-c2cnc(C3CC3)o2)cc1` gave a GI50 of 0.335 µM and a TGI of 3.4 µM. `CCc1ccc(/C=C/c2ccc(O)c3ncccc23)[n+](C)c1` was tested, and the GI50 was 1.88 µM and the TGI was > 100 µM. `S=c1[nH]c2c(Cl)c(Cl)c(Cl)c(Cl)c2[nH]1` gave a TGI of 47.1 µM. Molecule `Cc1ccc(Nc2oc(-c3ccccc3)nc2[P+](c2ccccc2)(c2ccccc2)c2ccccc2)cc1` has a GI50 of 1.24 µM and a TGI of 2.6 µM. Molecule `CS(=O)(=O)Nc1cc(-c2ccc3ncnc(Nc4c(Cl)ccc5c4OCO5)c3c2)cnc1Cl` has a GI50 of 0.171 µM and a TGI of 1.1 µM. For `COc1ccccc1Nc1ncc(-c2ccccc2)o1`, the GI50 was > 25 µM and the TGI was > 25 µM. For `Nc1ccn(C2OC(CO)C(O)C2O)c(=O)n1` (configuration not stated), the GI50 was 0.661 µM and the TGI was > 100 µM and 417 µM and > 500 µM. `O=C1CCC(=O)c2c1c(O)c1ccncc1c2O` showed a TGI of 36.4 µM. In the case of `CN(C)c1ccc(N=Nc2ccccn2)c(O)c1`, the GI50 is reported as 0.359 µM and the TGI is reported as > 100 µM. Molecule `CN1CC[C@@H](c2c(O)cc(O)c3c(=O)cc(-c4ccc(C(F)(F)F)cc4Cl)oc23)[C@@H]1CO` has a GI50 of 16.7 µM and a TGI of 36.4 µM. With `COC(=O)C1=C(C(=O)OC)C2=S(SC3=C2CCCC3)S1` (configuration not stated) the TGI was > 100 µM. For `O=C(NNc1ccccc1)C(=O)NNc1ccccc1`, the GI50 was 2.1 µM and the TGI was > 100 µM. `O=C(Nc1ccc(Cl)c(C(F)(F)F)c1)c1ccc(NC2=C(Cl)C(=O)N(Cc3ccccc3)C2=O)cc1` was tested, and the GI50 was 19.7 µM and the TGI was 52.8 µM.

What follows are molecules tested on RPMI-8226 leukemia (assay: NCI anticancer screen, dose series, 48 h).
`COc1cc(/C=C/C(=O)c2cccc(-n3cc(-c4ccc(Cl)cc4)[nH]c3=O)c2)ccc1O` was tested, and the GI50 was 1.33 µM and the TGI was 3.76 µM. For `Cc1ccc2c(C3C(C#N)=C(N)Oc4cc5ccccc5cc43)cc(=O)oc2c1` (configuration not stated), the GI50 was 3.23 µM and the TGI was 30.2 µM. `C[N+](C)(C)CC1CCC/C1=N\OC(=O)c1ccccc1` (configuration not stated) was tested, and the TGI was > 100 µM. `O=C(Nc1cc(C(F)(F)F)ccc1Cl)c1cccc(NC2=C(Cl)C(=O)N(Cc3ccccc3)C2=O)c1` gave a GI50 of 2.92 µM and a TGI of 50 µM. `CC1(Br)Cc2ccccc2C1=O` (configuration not stated) gave a GI50 of 3.02 µM and a TGI of 14.7 µM. For `COc1ccc2c(c1)c[n+](C)c1c3cc(OC)c(OC)cc3ccc21`, the TGI was 7.28 µM. In the case of `CN(C)C(=S)Sc1ccc([N+](=O)[O-])cc1[N+](=O)[O-]`, the GI50 is reported as 1.39 µM and the TGI is reported as 6.79 µM. For `O=C1c2cc3c(cc2-c2c1c1cc(Cl)c(Cl)cc1c(=O)n2C[C@H](O)CO)OCO3`, the GI50 was < 0.01 µM and the TGI was 0.188 µM. With `CC(C)(C)[Si](C)(C)OC1C(=O)C[C@H]2CCCC[C@@H]12` (some centres not stated) the TGI was > 100 µM. `CC1(C)N=C(N)N=C(N)N1c1ccc(CCCCc2ccc(Cl)c(S(=O)(=O)F)c2)c(Cl)c1` showed a GI50 of 0.527 µM and a TGI of 3.32 µM. Molecule `CCc1c(Cl)c(C)cc(O)c1Cl` has a TGI of 57.5 µM. For `BrCc1cccc(C[P+](c2ccccc2)(c2ccccc2)c2ccccc2)c1`, the GI50 was 2.18 µM and the TGI was 22.7 µM. Molecule `C=COC(=O)N[C@H]1CCc2cc(OC)c(OC)c(OC)c2-c2ccc(SC)c(=O)cc21` has a TGI of 52.1 µM. `Cc1ccc(NC(=O)CCc2nnc(N)o2)cc1` was tested, and the TGI was > 100 µM. `CN(C)c1ncnc2c1ncn2CCn1cnc2c(N(C)C)ncnc21` was tested, and the TGI was > 100 µM. In the case of `CSc1nc(NC2OC(COC(C)=O)C(OC(C)=O)C(OC(C)=O)C2OC(C)=O)c(N=CC=Nc2c(NC3OC(COC(C)=O)C(OC(C)=O)C(OC(C)=O)C3OC(C)=O)nc(SC)n(C)c2=O)c(=O)n1C` (configuration not stated), the TGI is reported as > 100 µM. `O=S(=O)(Nc1ccc(Cl)cc1Cl)c1ccc(-c2cnc(C3CC3)o2)cc1` was tested, and the GI50 was 0.903 µM and the TGI was 44.8 µM. For `CCc1ccc(/C=C/c2ccc(O)c3ncccc23)[n+](C)c1`, the GI50 was 3.08 µM and the TGI was > 100 µM. `S=c1[nH]c2c(Cl)c(Cl)c(Cl)c(Cl)c2[nH]1` was tested, and the TGI was 30.1 µM. `Cc1ccc(Nc2oc(-c3ccccc3)nc2[P+](c2ccccc2)(c2ccccc2)c2ccccc2)cc1` was tested, and the GI50 was 0.243 µM and the TGI was 0.639 µM. For `CS(=O)(=O)Nc1cc(-c2ccc3ncnc(Nc4c(Cl)ccc5c4OCO5)c3c2)cnc1Cl`, the GI50 was 0.148 µM and the TGI was 0.566 µM. With `COc1ccccc1Nc1ncc(-c2ccccc2)o1` the GI50 was > 25 µM and the TGI was > 25 µM. In the case of `Nc1ccn(C2OC(CO)C(O)C2O)c(=O)n1` (configuration not stated), the GI50 is reported as 3.75 µM and the TGI is reported as > 500 µM. `O=C1CCC(=O)c2c1c(O)c1ccncc1c2O` showed a TGI of 55.5 µM. In the case of `CN(C)c1ccc(N=Nc2ccccn2)c(O)c1`, the GI50 is reported as 0.348 µM and the TGI is reported as > 100 µM. In the case of `CN1CC[C@@H](c2c(O)cc(O)c3c(=O)cc(-c4ccc(C(F)(F)F)cc4Cl)oc23)[C@@H]1CO`, the GI50 is reported as 17.3 µM and the TGI is reported as 53.5 µM. `COC(=O)C1=C(C(=O)OC)C2=S(SC3=C2CCCC3)S1` (configuration not stated) showed a TGI of 30.1 µM. In the case of `O=C(NNc1ccccc1)C(=O)NNc1ccccc1`, the GI50 is reported as > 100 µM and the TGI is reported as > 100 µM. Molecule `O=C(Nc1ccc(Cl)c(C(F)(F)F)c1)c1ccc(NC2=C(Cl)C(=O)N(Cc3ccccc3)C2=O)cc1` has a GI50 of 2.56 µM and a TGI of 6.58 µM.

What follows are molecules tested on EKVX NSCLC (assay: NCI anticancer screen, dose series, 48 h).
For `COc1cc(/C=C/C(=O)c2cccc(-n3cc(-c4ccc(Cl)cc4)[nH]c3=O)c2)ccc1O`, the GI50 was 6.6 µM and the TGI was > 95.2 µM. With `Cc1ccc2c(C3C(C#N)=C(N)Oc4cc5ccccc5cc43)cc(=O)oc2c1` (configuration not stated) the GI50 was 4.44 µM and the TGI was > 100 µM. In the case of `C[N+](C)(C)CC1CCC/C1=N\OC(=O)c1ccccc1` (configuration not stated), the TGI is reported as > 100 µM. In the case of `O=C(Nc1cc(C(F)(F)F)ccc1Cl)c1cccc(NC2=C(Cl)C(=O)N(Cc3ccccc3)C2=O)c1`, the GI50 is reported as 53 µM and the TGI is reported as > 100 µM. In the case of `CC1(Br)Cc2ccccc2C1=O` (configuration not stated), the TGI is reported as 11.2 µM. In the case of `COc1ccc2c(c1)c[n+](C)c1c3cc(OC)c(OC)cc3ccc21`, the GI50 is reported as 1.5 µM and 11.3 µM and the TGI is reported as 4.52 µM and 42.3 µM. Work on `CN(C)C(=S)Sc1ccc([N+](=O)[O-])cc1[N+](=O)[O-]` yielded a GI50 of 5.29 µM and a TGI of 19.7 µM. For `O=C1c2cc3c(cc2-c2c1c1cc(Cl)c(Cl)cc1c(=O)n2C[C@H](O)CO)OCO3`, the GI50 was 0.0243 µM and the TGI was 19 µM. For `CC(C)(C)[Si](C)(C)OC1C(=O)C[C@H]2CCCC[C@@H]12` (some centres not stated), the TGI was > 100 µM. `CC1(C)N=C(N)N=C(N)N1c1ccc(CCCCc2ccc(Cl)c(S(=O)(=O)F)c2)c(Cl)c1` was tested, and the GI50 was 2.81 µM and the TGI was 37.7 µM. With `CCc1c(Cl)c(C)cc(O)c1Cl` the TGI was > 100 µM. `BrCc1cccc(C[P+](c2ccccc2)(c2ccccc2)c2ccccc2)c1` was tested, and the GI50 was 18.1 µM and the TGI was > 100 µM. For `C=COC(=O)N[C@H]1CCc2cc(OC)c(OC)c(OC)c2-c2ccc(SC)c(=O)cc21`, the TGI was > 100 µM. `Cc1ccc(NC(=O)CCc2nnc(N)o2)cc1` was tested, and the TGI was > 100 µM. In the case of `CN(C)c1ncnc2c1ncn2CCn1cnc2c(N(C)C)ncnc21`, the TGI is reported as > 100 µM.
